# Test results: US10485868B2, “Tn vaccine composition and method for alleviating inflammation” (TAIPEI MEDICAL UNIVERSITY, priority 2017, dated 2019)
# What was measured:
# [1] = test system: COSMC gene; assay: Bisulfite pyrosequencing of COSMC gene promoter methylation in HGFs; type: cell-based, human
# Method: (§1) FIG. 9A. Effect of TNF-α and demethylation agents on the methylation level of COSMC gene in HGFs. The comparison of methylation changes is in the HGFs which were treated with or without TNF-α and demethylation agents. The UCSC genome browser illustrated the orientation and the first exon of COSMC (blue bar), GC percent (black scale bar), CpG islands (green bar) and the sequencing region of bisulfite pyrosequencing (COSMC_py02, black bar). […] FIG. 9B. HGFs were co-treated with purified TNF-α and different concentrations of 5-aza-dC (0, 1, 2 and 5 μM) for 24 hours and then immunofluorescent stained with rabbit anti-Tn antibody (in red) and DAPI (in blue). Magnification 630×; Scale bar, 50 μm.
# [2] = test system: human gingival fibroblasts (HGFs); assay: Tn expression in HGFs, immunofluorescent staining with anti-Tn antibody; type: cell-based; settings: for Tn levels in HGFs, responsiveness to purified cytokine: 0, 10, 30, 100 ng/ml for 24 hours; for Tn levels in HGFs: TNF-α 30 ng/ml
# Method: FIG. 6A. Immunohistochemical analysis of Tn antigen in inflammatory tissues (top) and normal tissues (bottom). Tn staining in atherosclerotic aorta (left; labeled Aorta), bronchitis tissue (middle; labeled Bronchi), and periodontitis tissue (right; labeled Gingiva). Brown color represents Tn antigen expression. FIG. 6B. HGFs were treated with conditioned media from U937 cells stimulated with LPS (0, 10, 30 and 100 ng/ml; 24 hours) for 24 hours and then stained with purified rabbit anti-Tn antibody (in red) and DAPI (in blue). FIG. 6C. U937 cells were treated with LPS (0, 10, 30 and 100 ng/ml) for 24 hours, the secretions of TNF-α were analyzed by ELISA. Original magnifications (100×). Scale bar, 50 μm. FIG. 6D. U937 cells were treated with LPS (0, 10, 30 and 100 ng/ml) for 24 hours, the secretions of IL-6 were analyzed by ELISA. Original magnifications (100×). Scale bar, 50 μm. FIG. 6E. U937 cells were treated with LPS (0, 10, 30 and 100 ng/ml) for 24 hours, the secretions of IL-1β were analyzed by ELISA. Original magnifications (100×). Scale bar, 50 μm.
# FIGS. 7A and 7B show pro-inflammatory cytokines, TNF-α and IL-6, up-regulates Tn levels in HGFs. FIG. 7A. The effect of pro-inflammatory cytokines on Tn expression in HGFs. HGFs were treated with purified TNF-α, IL-6 and IL-1β at the concentration of 0, 10, 30, and 100 ng/ml for 24 hours and then stained with purified rabbit anti-Tn antibody (in red) and DAPI (in blue). Original magnification (100×); scale bar, 50 μm. FIG. 7B. Time course analysis of Tn expressions in HGFs after TNF-α treatment. HGFs were treated with purified TNF-α at the concentration of 30 ng/ml for 4, 8, 12, 24 and 48 hours and then stained with purified rabbit anti-Tn antibody (in red) and DAPI (in blue) (Magnifications 630×; scale bar, 50 μm). The experiments were repeated at least three times.
# as §1
# [3] = test system: COSMC; assay: qPCR of COSMC mRNA in HGFs; type: cell-based, human; settings: 100 ng/ml, 24 hours
# Method: (§2) FIG. 8A. Effect of TNF-α and demethylation agents (5-aza-dC) on mRNA expression of COSMC and T-synthase in HGFs. qPCR was used to analyze COSMC and T-synthase mRNA expression in HGFs upon TNF-α and 5-aza-dC treatment. The mRNA expression of COSMC and T-synthase was normalized to GAPDH and statistically analyzed. (*: p<0.05 compared with TNF-α only) Calculations of relative gene expression (normalized to GAPDH reference gene) were performed according to the ΔΔCT method. Fidelity of the PCR reaction was determined by melting temperature analysis. FIG. 8B. Western blotting was used to analyze the protein levels of Cosmc and T-synthase upon 6 and 24 hours of TNF-α treatment. FIG. 8C. and FIG. 8D. HGFs were treated with purified TNF-α for 6 or 24 hours and then immunofluorescent stained with anti-Cosmc (in red) and anti-T-synthase antibodies (in green) and DAPI (in blue). Original magnification (100×); scale bar, 50 μm.
# [4] = test system: T-synthase; assay: qPCR of T-synthase mRNA in HGFs; type: cell-based, human; settings: 100 ng/ml, 24 hours
# Method: as §2
# [5] = test system: NF-κB P65; assay: Immunohistochemistry of NF-κB in lung; type: in vivo, mice; settings: hyperoxia group immunized with carrier protein compared with control and Tn-treated hyperoxia groups
# Method: After a routine deparaffinization step, heat-induced epitope retrieval was performed by immersing the slides in 0.01 mol/L sodium citrate buffer (pH 6.0). To block the endogenous peroxidase activity and nonspecific antibody binding, sections were first preincubated for 1 hour at room temperature in 0.1 mol/L PBS containing 10% normal goat serum and 0.3% H2O2 before incubating for 20 hours at 4° C. with the rabbit polyclonal anti-NF-κB P65 (1:50 dilution; Abcam Inc., Cambridge, Mass., USA) as primary antibody. The sections were then treated for 1 hour at room temperature with biotinylated goat anti-rabbit IgG (1:200, Vector, Calif., USA). This was followed by reaction with the reagents from an ABC kit (Avidin-Biotin Complex, Vector, Calif., USA) according to the manufacturer's recommendations, and the reaction products were visualized by diaminobenzidine substrate kit (Vector, Calif., USA). All immunostained sections were viewed and photographed by Olympus BX 43.
# [6] = test system: C57BL/6NCrlBltw mice; assay: Serum anti-Tn antibody titers by ELISA after immunization; type: in vivo; settings: mice immunized subcutaneously with adjuvant, versus background before immunization
# Method: Five-week-old female C57BL/6NCrlBltw mice were subcutaneously immunized with Tn vaccine at a dose of 20 μg or carrier protein (10 μg of mFc(Cys42-Tn)Histag2) in the presence of adjuvant in 100 μl for four times at biweekly intervals and one additional immunization at one week later after the fourth immunization. Blood was withdrawn from facial vein for anti-Tn antibody titer measurement using enzyme-linked immunosorbent assay (ELISA) on days 0, 42, and 49. Four days after the last immunization, mice were exposed to room air (RA) or oxygen-enriched atmosphere (100% O2) for up to 96 hours. Oxygen exposures was carried out in a transparent 60×50×40-cm Plexiglas chamber into which oxygen was continuously delivered at 4 l/min and oxygen levels were monitored with a ProOx Model 110 monitor (NexBiOxy, Hsinchu, Taiwan) and humidity was checked daily and the value was 60-80%. We obtained four study groups as follows: carrier protein+RA (n=6), Tn vaccine+RA (n=6), carrier protein+O2 (n=6), and Tn vaccine+O2 (n=5). Mice were deeply anesthetized with an overdose of isoflurane after 96 hours O2 treatment. […] This washing procedure was repeated two more times for each animal, with the three washes being pooled, and the total volume recorded. […]
# GST(Cys6-Tn) was coated on 96-well flat-bottomed plates (Falcon Labware, Lincoln Park, N.J., USA) at a concentration of 1.5 μg/ml. […] Absorbance was read at 410 nm.
molecule,measurement,setting,value
"Nc1ncn([C@H]2C[C@H](O)[C@@H](CO)O2)c(=O)n1 [5-aza-dC, reference compound]",TNF-α-induced COSMC gene hypermethylation,[1]; HGFs treated with TNF-α and demethylation agent,can be suppressed
same,TNF-α-induced Tn expression,"[2]; HGFs co-treated with TNF-α and 0, 1, 2, 5 μM for 24 hours",can be suppressed
interleukin-1β [IL-1β],"Tn levels in HGFs, responsiveness to purified cytokine",[2],not responsive
tumor necrosis factor-α [TNF-α],methylation of four CpG sites in the promoter of the COSMC gene,[1]; TNF-α treatment of HGFs,significantly hypermethylated
same,COSMC mRNA in HGFs,[3],significantly down-regulated
same,T-synthase mRNA level in HGFs,[4],did not significantly alter
same,"Tn levels in HGFs, responsiveness to purified cytokine",[2],most responsive
same,Tn levels in HGFs,[2]; 8 to 12 hrs,Gradual increase
same,Tn levels in HGFs,[2]; 4 hrs,essentially unchanged
same,Tn levels in HGFs,[2]; after 24 hours,gradually decreased
same,Tn levels in HGFs,[2]; after 48 hours,markedly decreased
interleukine-6 [IL-6],"Tn levels in HGFs, responsiveness to purified cytokine",[2],moderately responsive
Fc fragment-7 repeats of Pro-Cys-Cys-Gly-Cys-Cys-Gly-Cys-Gly-Cys-N-succinimidyl-6-maleimidocaproate [carrier protein],NFκB immunoreactivity in lung,[5],more intense NFκB immunoreactivity
same,serum anti-Tn antibody titers,[6],low serum Tn antibody titers
same,serum anti-Tn antibody titers,[6]; listed as carrier polypeptide,background serum anti-Tn antibody levels
